Reference: patent US8642640B2, “1-phenylpyrrole derivatives” (Exelixis, Inc., priority 2008, dated 2014)

Tests used:
[1] = biological target: T1, human mineralocorticoid receptor (hMR) (Homo sapiens, UniProt P08235); assay: GAL4-hMR-LBD luciferase reporter assay in HEK293 cells with 1 nM aldosterone (Test Example 1); format: cell-based; conditions: for Emax: HEK293, read-out: Imax; for IC50: concentration showing Imax/2, HEK293, GAL4-hMR-LBD, 1 nM aldosterone, overnight, read-out: ICmax50;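 on Imax: 0% is DMSO-only control and 100% is 1 nM aldosterone alone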
T1 construct: expressed in transfected cells; host or cells: HEK293
T1 sequence (P08235 726-964 limits assumed): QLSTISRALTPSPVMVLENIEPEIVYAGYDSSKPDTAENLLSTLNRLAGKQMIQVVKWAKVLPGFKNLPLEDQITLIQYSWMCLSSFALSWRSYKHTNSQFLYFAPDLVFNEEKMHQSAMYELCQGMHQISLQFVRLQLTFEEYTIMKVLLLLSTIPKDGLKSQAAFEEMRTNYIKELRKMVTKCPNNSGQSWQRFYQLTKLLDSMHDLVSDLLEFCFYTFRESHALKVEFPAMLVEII
Procedure: A plasmid pM-hMR-LBD expressing GAL4-hMR receptor, which has a ligand binding domain (LBD, corresponding to approximately 308 amino acids at the carboxy terminus) of human mineralocorticoid receptor (hMR, NM_000901) bonded to a DNA binding domain of yeast transcription factor GAL4 (corresponding to 147 amino acids at the amino terminus), was prepared. Reporter assay was conducted by using a reporter plasmid (such as plasmid pFR-Luc of […] CLONING SYSTEMS) including a luciferase gene, having a sequence (UAS sequence) which binds to the DNA binding domain of GAL4.
The plasmid pM-hMR-LBD and the reporter plasmid as obtained above were gene transferred into renal cell line HEK293 of human fetus by lipofection. On the next day, cells were collected by trypsin treatment, and dispensed with DMEM culture medium containing 5% of FBS treated by activated charcoal, to a white 96-well plate (Costar) with the amount of 95 microliter per well.
The test compounds were used as dissolved in dimethyl sulfoxide at a predetermined concentration, and the test compounds suitably diluted with culture media were added to the cells on the white 96-well plate so that the final concentration becomes 0.1%. […] After the addition, cultivation was carried out overnight.
On the next day, the culture media was removed, and then luciferase substrate (Wako Pure Chemical Industries, Ltd.) was prepared in accordance with the attached document and were added to each well by 50 microliters. Stirring was conducted for approximately 30 minutes, and the amount of luminescence was measured for each well by using Analyst (Molecular Devices), to obtain luciferase activity. A graph which plots relative luciferase activity values, when the luciferase activity value of Control group 1 was taken as 0% and the luciferase activity value of Control group 2 was taken as 100%, for each of the amount of the test compound addition group was made.

[2] = Plasma concentration after intragastric administration to cynomolgus monkey (Test Example 2); format: in vivo; conditions: for AUC, area under the plasma concentration versus time curve / Cmax: male cynomolgus monkey, 3 mg/kg intragastric in 0.5% MC, LC-MS/MS, plasma; for AUC, area under the plasma concentration versus time curve: noncompartment model; for Cmax: po, read-out: Cmax, maximum concentration
Procedure: Cynomolgus monkey (male) was used, and it was fasted from the day before administration of the test compound.
Administration samples were prepared by adding a 0.5% MC (methyl cellulose) solution to the Test Compound, so that the dose becomes 3 mg/2 mL/kg. Each of the administration samples was administered intragastrically to the cynomolgus monkey by using a tube. After the samples were administered, approximately 5 mL of 0.5% MC was administered. For each of the administration samples, a group of two cynomolgus monkeys was administered.
With respect to collection of blood, it was conducted by collecting approximately 0.5 mL of blood from crotch vein using a glass syringe treated with heparin, before administration, and 30 minutes, 1, 2, 4, 6, 8, 24 and 48 hours after administration. Blood was centrifuged (1,700×g, 15 min, 4° C.) to obtain plasma. Plasma was stored in a freezer (−20° C.) until pretreatment.
Preparation of standard solution and internal standard (IS) solution: Each of the Test Compounds was dissolved in DMSO (dimethyl sulfoxide) to prepare a solution of 10 mM each. Each of the compound solution was diluted with acetonitrile, and thus standard solution was prepared. Further, niflumic acid (Wako Pure Chemical Industries, Ltd.) was dissolved in DMSO at the concentration of 2 mM, followed by dilution with acetonitrile to prepare an IS solution of 2 μM.
Pretreatment of plasma samples: 20 μL of plasma sample was collected, and then 25 μL of purified water, 100 μL of acetonitrile, and 100 μL of methanol was added. For the preparation of a calibration curve, 25 μL of purified water, 20 μL of each of the standard solutions (acetonitrile solution), 80 μL of acetonitrile, and 100 μL of methanol were added to 20 μL of blank plasma. 40 μL of the acetonitrile solution of IS was added to all of the samples, and then the samples were stirred, filtered by suction using Captiva filter plate (Varian, Inc.), and then the filtrate was used as the sample for LC-MS/MS analysis.
Quantitative Determination of Test Compound: Concentration in plasma was analyzed by LC-MS/MS method for each Test Compound.
Analysis: Pharmacokinetic parameter was calculated from concentration of each of the drugs in plasma, by using WinNonlin Professional (Ver. 4.0.1, Pharsight Corporation). Here, Noncompartment model was used as the model for parameter calculation.

| Emax [1] [%] | IC50 [1] [nM] | AUC, area under the plasma concentration versus time curve [2] [ng·h/mL] | Cmax [2] [ng/mL] | Structure (SMILES) | concentration in plasma compared with Reference compound A and Reference compound B ([2]; summary of Table 16, cynomolgus monkey, 3 mg/kg) |
| --- | --- | --- | --- | --- | --- |
| 119 | 3.4 | 31310 | 1600 | Cc1c(C(=O)Nc2ccc(S(C)(=O)=O)cc2)cc(C[C@H](C)O)n1-c1ccc(F)cc1C(F)(F)F (single isomer, unassigned) [Example 5 - isomer A] |  |
| 84 | 18 | 23950 | 2350 | Cc1c(C(=O)Nc2ccc(S(C)(=O)=O)cc2)cc(C[C@H](C)O)n1-c1ccc(F)cc1OC(F)F (single isomer, unassigned) [Example 9 - isomer A] |  |
| 89 | 7.3 | 24810 | 1600 | Cc1c(C(=O)Nc2ccc(S(C)(=O)=O)cc2)cc(C[C@H](C)O)n1-c1ccc(Cl)cc1OC(F)F (single isomer, unassigned) [Example 11 - isomer A] |  |
| 101 | 3.6 | 13490 | 1000 | Cc1c(C(=O)Nc2ccc(S(C)(=O)=O)cc2)cc(C[C@H](C)O)n1-c1ccc(F)cc1OC(F)(F)F (single isomer, unassigned) [Example 16 - isomer A] |  |
| 94 | 7.8 |  |  | Cc1c(C(=O)Nc2ccc(S(C)(=O)=O)cc2)cc(C[C@H](C)O)n1-c1ccc(F)cc1OC(F)(F)F [Example 16, 1-[4-Fluoro-2-(trifluoromethoxy)phenyl]-5-[(2S)-2-hydroxypropyl]-2-methyl-N-[4-(methylsulfonyl)phenyl]-1H-pyrrole-3-carboxamide] |  |
| 112 | 26 |  |  | Cc1c(C(=O)Nc2ccc(S(C)(=O)=O)cc2)cc(C[C@H](C)O)n1-c1ccc(F)cc1Cl [Example 40, 1-(2-Chloro-4-fluorophenyl)-5-[(2S)-2-hydroxypropyl]-2-methyl-N-[4-(methylsulfonyl)phenyl]-1H-pyrrole-3-carboxamide] |  |
| 110 | 4.8 |  |  | Cc1c(C(=O)Nc2ccc(S(C)(=O)=O)cc2)cc(C[C@H](C)O)n1-c1ccc(Cl)cc1OC(F)(F)F [Example 42, 1-[4-Chloro-2-(trifluoromethoxy)phenyl]-5-[(2S)-2-hydroxypropyl]-2-methyl-N-[4-(methylsulfonyl)phenyl]-1H-pyrrole-3-carboxamide] |  |
| 100 | 40 |  |  | Cc1c(C(=O)Nc2ccc(S(C)(=O)=O)cc2)cc(C[C@H](C)O)n1-c1ccc(Cl)cc1Cl [Example 43, 1-(2,4-Dichlorophenyl)-5-[(2S)-2-hydroxypropyl]-2-methyl-N-[4-(methylsulfonyl)phenyl]-1H-pyrrole-3-carboxamide] |  |
| 85 | 7.1 |  |  | Cc1c(C(=O)Nc2ccc(S(C)(=O)=O)cc2)cc(C[C@H](C)O)n1-c1ccc(Cl)cc1Oc1ccc(F)cc1 [Example 45, 1-[4-Chloro-2-(4-fluorophenoxy)phenyl]-5-[(2S)-2-hydroxypropyl]-2-methyl-N-[4-(methylsulfonyl)phenyl]-1H-pyrrole-3-carboxamide] |  |

More lines, now with the values behind:

| Structure (SMILES) | Emax [1] [%] | IC50 [1] [nM] | AUC, area under the plasma concentration versus time curve [2] [ng·h/mL] | Cmax [2] [ng/mL] | concentration in plasma compared with Reference compound A and Reference compound B ([2]; summary of Table 16, cynomolgus monkey, 3 mg/kg) |
| --- | --- | --- | --- | --- | --- |
| Cc1c(C(=O)Nc2ccc(S(C)(=O)=O)cc2)cc(CCO)n1-c1ccc(Cl)cc1C(F)(F)F (single isomer, unassigned) [Example 1 - isomer A, 1-[4-Chloro-2-(trifluoromethyl)phenyl]-5-(2-hydroxyethyl)-2-methyl-N-[4-(methylsulfonyl)phenyl]-1H-pyrrole-3-carboxamide] | 87 | 3.7 | 14110 | 990 |  |
| Cc1c(C(=O)Nc2ccc(S(C)(=O)=O)cc2)cc(C[C@H](C)O)n1-c1ccc(Cl)cc1C(F)(F)F (single isomer, unassigned) [Example 6 - isomer A] | 79 | 3.1 | 30280 | 1730 |  |
| Cc1cc(NC(=O)c2cc(C[C@H](C)O)n(-c3ccc(F)cc3OC(F)F)c2C)ccc1S(C)(=O)=O [Example 22, 1-[2-(Difluoromethoxy)-4-fluorophenyl]-5-[(2S)-2-hydroxypropyl]-2-methyl-N-[3-methyl-4-(methylsulfonyl)phenyl]-1H-pyrrole-3-carboxamide] | 111 | 9.1 |  |  |  |
| CCc1c(C(=O)Nc2ccc(S(C)(=O)=O)cc2)cc(C[C@H](C)O)n1-c1ccc(F)cc1Cl [Example 44, 1-(2-Chloro-4-fluorophenyl)-2-ethyl-5-[(2S)-2-hydroxypropyl]-N-[4-(methylsulfonyl)phenyl]-1H-pyrrole-3-carboxamide] | 111 | 24 |  |  |  |
| Cc1c(C(=O)Nc2ccc(S(N)(=O)=O)c(Cl)c2)cc(C[C@H](C)O)n1-c1ccc(F)cc1Cl [Example 49, N-[4-(Aminosulfonyl)-3-chlorophenyl]-1-(2-chloro-4-fluorophenyl)-5-[(2S)-2-hydroxypropyl]-2-methyl-1H-pyrrole-3-carboxamide] | 96 | 8.3 |  |  |  |
| Cc1c(C(=O)Nc2ccc(S(C)(=O)=O)cc2)cc(C[C@H](C)O)n1-c1ccc(Cl)cc1-c1ccc(F)cc1 [Example 50, 1-(5-Chloro-4′-fluorobiphenyl-2-yl)-5-[(2S)-2-hydroxypropyl]-2-methyl-N-[4-(methylsulfonyl)phenyl]-1H-pyrrole-3-carboxamide] | 114 | 2.7 |  |  |  |
| Cc1cc(Cl)ccc1-n1c(CCF)cc(C(=O)Nc2ccc(S(C)(=O)=O)cc2)c1C [Example 51, 1-(4-Chloro-2-methylphenyl)-5-(2-fluoroethyl)-2-methyl-N-[4-(methylsulfonyl)phenyl]-1H-pyrrole-3-carboxamide] | 115 | 19 |  |  |  |
| Cc1c(C(=O)Nc2ccc(S(C)(=O)=O)cc2)cc(CCF)n1-c1ccc(F)cc1OC(F)F [Example 54, 1-[2-(Difluoromethoxy)-4-fluorophenyl]-5-(2-fluoroethyl)-2-methyl-N-[4-(methylsulfonyl)phenyl]-1H-pyrrole-3-carboxamide] | 75 | 14 |  |  |  |
| Cc1c(C(=O)Nc2ccc(S(C)(=O)=O)cc2)cc(CC(=O)N(C)C)n1-c1ccc(Cl)cc1C(F)(F)F [Example 61, 1-[4-Chloro-2-(trifluoromethyl)phenyl]-5-[2-(dimethylamino)-2-oxoethyl]-2-methyl-N-[4-(methylsulfonyl)phenyl]-1H-pyrrole-3-carboxamide] | 115 | 5.5 |  |  |  |
| Cc1c(C(=O)Nc2ccc(S(C)(=O)=O)cc2)cc(CCO)n1-c1ccc(F)cc1C(F)(F)F [Example 62, 1-[4-Fluoro-2-(trifluoromethyl)phenyl]-5-(2-hydroxyethyl)-2-methyl-N-[4-(methylsulfonyl)phenyl]-1H-pyrrole-3-carboxamide] |  |  | 8060 | 660 | considerably improved concentration in plasma |
